Assay [1] concerns eotaxin-3 release. Briefly: Human whole blood eotaxin-3 assay (IL-4 stimulated). In kind it is cell-based. As to conditions: human whole blood, IL-4 0.4 nM, 48 hours; geometric mean; given for compounds with >80% Emax; read-out: Eotaxin-3 EC50. The protocol: Human Whole Blood Eotaxin-3 Assay
This was a human whole blood assay using recombinant human Interleukin 4 to stimulate the blood and measuring the ability of the test compounds to inhibit eotaxin-3 release. Compounds or media were added to the wells and incubated together with human whole blood for 120 minutes at 37° C. Subsequently, recombinant IL-4 was added at a final concentration of 0.4 nM. The plates were incubated for 48 hours.
Test compounds which inhibited eotaxin-3 release upon stimulation with human IL-4 (E. coli) interfered with the signaling in human whole blood are expected to have activity in human beings. […] The EC50 value indicates at which concentration test compounds were active and in inhibiting the eotaxin-3 release. As eotaxin-3 release is down-stream of STAT6 signaling both STAT6 inhibitors and STAT6 degraders are active in this assay.
The data from the human whole blood eotaxin-3 assay is shown below for Examples 3e27, 3e50, 3e17, and 3e51 (where the effect in % is plotted against the test concentration in M on a log-scale).

In assay [2] the target is STAT6 (Homo sapiens (Human), UniProt P42226). Put plainly: STAT6 degrader assay (HiBiT, HeLa LgBiT clone 4.14). In kind it is cell-based. The following applies: HeLa LgBiT clone 4.14, 4-24 h; for DC50: geometric mean, given for compounds with >80% Emax, read-out: STAT6 degradation DC50; for Emax: read-out: STAT6 degradation Emax (%). Put shortly:
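DC50 (nM) comes from luminescence of non-degraded STAT6 read 0.5 h after Nano-GLO addition, following 4-24 h compound exposure at 37° C. Cells were HeLa clone 4.14 expressing LgBiT with a CRISPR HiBiT tag on endogenous STAT6; 50 μM terfenadine set full degradation.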
In general terms: The HiBiT peptide binds its large partner to form an active luciferase.

pEC50: −log10 of the molar value. Where only a bound is given, the exact number is not on record here.

STAT6, sequence (P42226 whole entry): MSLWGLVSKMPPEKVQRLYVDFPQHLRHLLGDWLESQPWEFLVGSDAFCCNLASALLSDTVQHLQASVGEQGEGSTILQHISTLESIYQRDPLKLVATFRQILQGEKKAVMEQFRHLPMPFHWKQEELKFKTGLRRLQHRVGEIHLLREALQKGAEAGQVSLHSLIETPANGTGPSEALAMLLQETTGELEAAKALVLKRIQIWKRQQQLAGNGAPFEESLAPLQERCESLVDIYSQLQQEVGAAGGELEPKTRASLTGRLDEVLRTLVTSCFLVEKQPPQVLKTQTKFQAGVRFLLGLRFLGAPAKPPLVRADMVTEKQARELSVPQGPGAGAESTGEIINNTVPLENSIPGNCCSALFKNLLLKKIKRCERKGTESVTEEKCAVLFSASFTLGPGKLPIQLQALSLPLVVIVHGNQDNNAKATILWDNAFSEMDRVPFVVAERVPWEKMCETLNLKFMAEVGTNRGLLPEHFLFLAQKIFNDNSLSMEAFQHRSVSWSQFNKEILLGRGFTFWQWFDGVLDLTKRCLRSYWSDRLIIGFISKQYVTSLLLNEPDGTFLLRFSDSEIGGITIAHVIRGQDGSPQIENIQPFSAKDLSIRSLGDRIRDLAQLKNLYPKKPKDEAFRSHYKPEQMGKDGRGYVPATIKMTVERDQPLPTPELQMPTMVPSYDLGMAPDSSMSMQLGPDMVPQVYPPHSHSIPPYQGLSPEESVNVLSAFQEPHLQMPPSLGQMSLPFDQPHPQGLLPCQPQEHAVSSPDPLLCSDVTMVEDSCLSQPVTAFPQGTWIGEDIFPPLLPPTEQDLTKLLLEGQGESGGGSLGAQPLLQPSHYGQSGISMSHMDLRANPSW

Consider `CNc1ccc(-c2ccnc3c2cc([C@H](C)N2CC=C(c4c(F)cc(C(=O)N5CCC(CN6CCN(Cc7ccc8c(c7)C7(CC7)C(=O)N8C7CCC(=O)NC7=O)C[C@@H]6C)CC5)cc4F)CC2)n3C)cn1` (stereo partly drawn) [Example 3h36, 3-(5′-(((S)-4-((1-(3,5-difluoro-4-(1-((S)-1-(1-methyl-4-(6-(methylamino)pyridin-3-yl)-1H-pyrrolo[2,3-b]pyridin-2-yl)ethyl)-1,2,3,6-tetrahydropyridin-4-yl)benzoyl)piperidin-4-yl)methyl)-3-methylpiperazin-1-yl)methyl)-2′-oxospiro[cyclopropane-1,3′-indolin]-1′-yl)piperidine-2,6-dione], for which the negative logarithm of the EC50 (pEC50) (in general, the negative decadic logarithm of the EC50, by convention in mol/L) in assay [1] is 8.08.

Consider `CC[C@H]1CN(Cc2ccc3c(c2)n(C)c(=O)n3[C@H]2CCC(=O)NC2=O)CCN1CC1CCN(C(=O)c2ccc(C3CCN([C@@H](C)c4cc5c(-c6ccc(N)nc6)ccnc5n4C)CC3)cc2)CC1` (single isomer, unassigned) [Example 3e59], for which the negative logarithm of the EC50 (pEC50) in assay [1] is 8.08.

As to `C[C@@H](c1cc2c(-c3ccc(N)nc3)ccnc2n1C)N1CCC(c2ccc(C(=O)N3CCC(CN4CCN(c5cc6c(cc5F)n(C5CCC(=O)NC5=O)c(=O)n6C)CC4)CC3)cc2)CC1` (stereo partly drawn) [Example 3h44, 3-(5-(4-((1-(4-(1-((S)-1-(4-(6-aminopyridin-3-yl)-1-methyl-1H-pyrrolo[2,3-b]pyridin-2-yl)ethyl)piperidin-4-yl)benzoyl)piperidin-4-yl)methyl)piperazin-1-yl)-6-fluoro-3-methyl-2-oxo-2,3-dihydro-1H-benzo[d]imidazol-1-yl)piperidine-2,6-dione], the pEC50 in assay [1] is 7.71.

In the case of `CNc1ccc(-c2ccnc3c2cc(CN2CC=C(c4c(F)cc(C(=O)N5CCC(CN6CCN(Cc7ccc8c(c7)C7(CC7)C(=O)N8C7CCC(=O)NC7=O)C[C@@H]6C)CC5)cc4F)CC2)n3C)cn1` (stereo partly drawn) [Example 3h37, 3-(5′-(((S)-4-((1-(3,5-difluoro-4-(1-((1-methyl-4-(6-(methylamino)pyridin-3-yl)-1H-pyrrolo[2,3-b]pyridin-2-yl)methyl)-1,2,3,6-tetrahydropyridin-4-yl)benzoyl)piperidin-4-yl)methyl)-3-methylpiperazin-1-yl)methyl)-2′-oxospiro[cyclopropane-1,3′-indolin]-1′-yl)piperidine-2,6-dione], the pEC50 in assay [1] was 7.02.

Regarding `CNc1ccc(-c2ccnc3c2cc([C@H](C)N2CC=C(c4c(C)cc(C(=O)N5CCC(CN6CCN(Cc7ccc8c(c7)C7(CC7)C(=O)N8C7CCC(=O)NC7=O)C[C@@H]6C)CC5)cc4F)CC2)n3C)cn1` (stereo partly drawn) [Example 3h20, 3-(5′-(((S)-4-((1-(3-fluoro-5-methyl-4-(1-((S)-1-(1-methyl-4-(6-(methylamino)pyridin-3-yl)-1H-pyrrolo[2,3-b]pyridin-2-yl)ethyl)-1,2,3,6-tetrahydropyridin-4-yl)benzoyl)piperidin-4-yl)methyl)-3-methylpiperazin-1-yl)methyl)-2′-oxospiro[cyclopropane-1,3′-indolin]-1′-yl)piperidine-2,6-dione], the negative-log EC50 (pEC50) in assay [1] is 8.44.

On to `C[C@H]1CN(Cc2ccc3c(c2)C2(CC2)C(=O)N3C2CCC(=O)NC2=O)CCN1CC1CCN(C(=O)c2ccc(C3CCN([C@@H](C)c4cc5c(-c6ccc(N)nc6)ccnc5n4C)CC3)cc2)CC1` (stereo partly drawn) [Example 3h29, 3-(5′-(((S)-4-((1-(4-(1-((S)-1-(4-(6-aminopyridin-3-yl)-1-methyl-1H-pyrrolo[2,3-b]pyridin-2-yl)ethyl)piperidin-4-yl)benzoyl)piperidin-4-yl)methyl)-3-methylpiperazin-1-yl)methyl)-2′-oxospiro[cyclopropane-1,3′-indolin]-1′-yl)piperidine-2,6-dione], for which the pEC50 in assay [1] is 8.59.

Take `C[C@H]1CN(Cc2cc3c(cc2F)N(C2CCC(=O)NC2=O)C(=O)C3(C)C)CCN1CC1CCN(C(=O)c2ccc(C3CCN([C@@H](C)c4cc5c(-c6ccc(N)nc6)ccnc5n4C)CC3)cc2)CC1` (stereo partly drawn) [Example 3h35, 3-(5-(((S)-4-((1-(4-(1-((S)-1-(4-(6-aminopyridin-3-yl)-1-methyl-1H-pyrrolo[2,3-b]pyridin-2-yl)ethyl)piperidin-4-yl)benzoyl)piperidin-4-yl)methyl)-3-methylpiperazin-1-yl)methyl)-6-fluoro-3,3-dimethyl-2-oxoindolin-1-yl)piperidine-2,6-dione]: the pEC50 in assay [1] is 7.50.

`Cn1c(CN2CCC(c3ccc(C(=O)N4CCC(OCC#Cc5ccc6c(c5)n(C)c(=O)n6C5CCC(=O)NC5=O)CC4)cc3)CC2)cc2c(-c3ccc4[nH]ncc4c3)ccnc21` (stereo not drawn) [Example 3b1, 3-(5-(3-((1-(4-(1-((4-(1H-indazol-5-yl)-1-methyl-1H-pyrrolo[2,3-b]pyridin-2-yl)methyl)piperidin-4-yl)benzoyl)piperidin-4-yl)oxy)prop-1-yn-1-yl)-3-methyl-2-oxo-2,3-dihydro-1H-benzo[d]imidazol-1-yl)piperidine-2,6-dione]: in assay [2], the DC50 (in general, the concentration giving 50% degradation) was determined as 2.4 nM.

Consider `CNc1ccc(-c2ccnc3c2cc(CN2CCC(c4c(F)cc(C(=O)N5CCC(CN6CCN(c7cc8c(cc7F)n(C7CCC(=O)NC7=O)c(=O)n8C)CC6)CC5)cc4F)CC2)n3C)cn1` (stereo not drawn) [Example 3h49, 3-(5-(4-((1-(3,5-difluoro-4-(1-((1-methyl-4-(6-(methylamino)pyridin-3-yl)-1H-pyrrolo[2,3-b]pyridin-2-yl)methyl)piperidin-4-yl)benzoyl)piperidin-4-yl)methyl)piperazin-1-yl)-6-fluoro-3-methyl-2-oxo-2,3-dihydro-1H-benzo[d]imidazol-1-yl)piperidine-2,6-dione], for which the maximal response (Emax) (usually the greatest response seen or fitted, relative to the assay's reference) in assay [2] is less than 20%.

For `Cn1c(CN2CCC(c3ccc(C(=O)N4CCN(CC5CCN(Cc6ccc7c(c6)n(C)c(=O)n7C6CCC(=O)NC6=O)CC5)CC4)cc3)CC2)cc2c(-c3ccc4[nH]ncc4c3)ccnc21` (stereo not drawn) [Example 3f1, 3-(5-((4-((4-(4-(1-((4-(1H-indazol-5-yl)-1-methyl-1H-pyrrolo[2,3-b]pyridin-2-yl)methyl)-piperidin-4-yl)benzoyl)piperazin-1-yl)methyl)piperidin-1-yl)methyl)-3-methyl-2-oxo-2,3-dihydro-1H-benzo[d]imidazol-1-yl)piperidine-2,6-dione], the Emax in assay [2] lay in the range of 40 to 50%.

On to `CNc1ccc(-c2ccnc3c2cc([C@H](C)N2CC=C(c4c(C)cc(C(=O)N5CCC(CN6CCN(Cc7ccc8c(c7)n(C7CC7)c(=O)n8[C@@H]7CCC(=O)NC7=O)C[C@@H]6C)CC5)cc4F)CC2)n3C)cn1` [Example 3h7, (R)-3-(3-cyclopropyl-5-(((S)-4-((1-(3-fluoro-5-methyl-4-(1-((S)-1-(1-methyl-4-(6-(methylamino)pyridin-3-yl)-1H-pyrrolo[2,3-b]pyridin-2-yl)ethyl)-1,2,3,6-tetrahydropyridin-4-yl)benzoyl)piperidin-4-yl)methyl)-3-methylpiperazin-1-yl)methyl)-2-oxo-2,3-dihydro-1H-benzo[d]imidazol-1-yl)piperidine-2,6-dione], for which, in assay [2], the half-maximal degradation concentration (DC50) was found to be 1.4 nM.

Take `Cn1c(CN2CCC(c3ccc(C(=O)N4CCC(CN5CCN(Cc6ccc7c(c6)n(C)c(=O)n7C6CCC(=O)NC6=O)CC5)CC4)cc3)CC2)cc2c(-c3ccc4[nH]ncc4c3)ccnc21` (stereo not drawn) [Example 3e1, 3-(5-((4-((1-(4-(1-((4-(1H-indazol-5-yl)-1-methyl-1H-pyrrolo[2,3-b]pyridin-2-yl)methyl)piperidin-4-yl)benzoyl)piperidin-4-yl)methyl)piperazin-1-yl)methyl)-3-methyl-2-oxo-2,3-dihydro-1H-benzo[d]imidazol-1-yl)piperidine-2,6-dione]: the DC50 in assay [2] was found to be 0.6 nM.

`COCc1nc2cc(-c3ccnc4c3cc(CN3CCC(c5ccc(C(=O)N6CCC(CN7CCN(Cc8ccc9c(c8)n(C8CCC(=O)NC8=O)c(=O)n9C)CC7)CC6)cc5)CC3)n4C)ccc2[nH]1` (stereo not drawn) [Example 3o1, 3-(6-((4-((1-(4-(1-((4-(2-(methoxymethyl)-1H-benzo[d]imidazol-5-yl)-1-methyl-1H-pyrrolo[2,3-b]pyridin-2-yl)methyl)piperidin-4-yl)benzoyl)piperidin-4-yl)methyl)piperazin-1-yl)methyl)-3-methyl-2-oxo-2,3-dihydro-1H-benzo[d]imidazol-1-yl)piperidine-2,6-dione]: in assay [2], the Emax is less than 20%.

For `C[C@H]1CN(Cc2ccc3c(c2)n(C)c(=O)n3C2CCC(=O)NC2=O)CCN1CC1CCN(C(=O)c2ccc(N3CCN(Cc4cc5c(-c6ccc(N)nc6)ccnc5n4C)CC3)cc2)CC1` (stereo partly drawn) [Example 3h14, 3-(5-(((S)-4-((1-(4-(4-((4-(6-aminopyridin-3-yl)-1-methyl-1H-pyrrolo[2,3-b]pyridin-2-yl)methyl)piperazin-1-yl)benzoyl)piperidin-4-yl)methyl)-3-methylpiperazin-1-yl)methyl)-3-methyl-2-oxo-2,3-dihydro-1H-benzo[d]imidazol-1-yl)piperidine-2,6-dione], the DC50 in assay [2] is 1.1 nM.

In the case of `Cn1c(CN2CCC(c3ccc(C(=O)N4CCC(CN5CCN(Cc6ccc7c(c6)n(C6CCC(=O)NC6=O)c(=O)n7C)CC5)CC4)cc3)CC2)cc2c(-c3ccc(N)nc3)ccnc21` (stereo not drawn) [Example 3o2, 3-(6-((4-((1-(4-(1-((4-(6-aminopyridin-3-yl)-1-methyl-1H-pyrrolo[2,3-b]pyridin-2-yl)methyl)piperidin-4-yl)benzoyl)piperidin-4-yl)methyl)piperazin-1-yl)methyl)-3-methyl-2-oxo-2,3-dihydro-1H-benzo[d]imidazol-1-yl)piperidine-2,6-dione], the maximum response (Emax) in assay [2] is less than 20%.
